Measured values reported in paper PMC9917735, “Optimization of the Hemolysis Assay for the Assessment of Cytotoxicity” (International Journal of Molecular Sciences, 2023).
Read-outs that look alike come from different tables or passages of the source.

Tests used:
[1] = previously well-characterized AMPs; ref [9],[33]; cited from earlier work
Method: OD measurements of human whole blood treated with hemolyzing agents or AMPs at 405 nm (A), 530 nm (B), and 570 nm (C) were recorded (Figure 6) and HRs calculated (Table 5). For comparison, we also included the two previously well-characterized AMPs melittin and polymyxin B, which exert high and low cytotoxicity, respectively. […] From 530 and 570 nm measurements, the expected conce ...

[2] = test system: human whole blood; details: human whole blood, 60 min 37 °C; for Calculated hemolysis ratio: peptides 100 μM, neg. PBS, 3 x 2 replicates
[3] = test system: washed human erythrocytes; assay: Hemolysis assay, washed human erythrocytes; details: peptides 100 μM, 60 min 37 °C, pos. 10% Triton X-100, neg. PBS, 3 x 2 replicates
Method: Blood is drawn from a human or an animal, and next, the washed erythrocytes are incubated together with the compound or material under investigation. If the compound causes hemolysis, hemoglobin (along with other cellular constituents) will be released into the supernatant.
All blood was collected in Lithium Heparin tubes 4 mL (Greiner Bio-One, Kremsmünster, Austria) or Coagulation sodium citrate 3.2% tubes 3 mL (Greiner Bio-One).
These three peptides were synthesized by Genscript Inc. (Piscataway, NJ, USA), and stock solutions of 1 mg/mL were made from the purchased powders. […] All peptides were diluted to yield a 100 μM final concentration in the hemolysis assays.
Triton X-100 (T8787) and Tween-20 (P2287) detergents were purchased from Sigma Aldrich and diluted to obtain 10% stock solutions by weighing (w/v). A sodium Dodecyl Sulfate (SDS) 10% solution was purchased from Invitrogen (Waltham, MA, USA, 15553027). All subsequent dilutions annotated in figures were made from these stocks.
As soon as possible after phlebotomy, the blood samples were centrifuged at 1700× g for 5 min. The supernatant was removed by aspiration and 2 mL of PBS pH 7 was added. The washing step was repeated three times or until the supernatant was clear. After final aspiration, the remaining pellet was diluted 1:100 in PBS pH 7 to obtain a 1% erythrocyte suspension (or 1:100, 1:50, and 1:20 for assays testing the effect of erythrocyte concentration). For experiments using whole blood, the washing steps were not performed, but downstream experimentation was identical. For experiments performed with 96-well plates, 50 μL of test compound, water, or detergent were mixed with 50 μL of blood sample (1% erythrocyte suspension or whole blood). For experiments using larger volumes, 250 μL of test compound, water, or detergent were mixed with 250 μL blood sample in an Eppendorf tube. Samples were subsequently incubated at 37 °C for 60 min (or 15, 30, 60, 90, or 120 min for assays evaluating the effect of incubation time). After incubation, the plates/tubes were centrifuged at 1700× g for 5 min, and then 50 μL of the supernatants were transferred to transparent, flat-bottom 96-well plates (Anicrin, A013418). Finally, absorption was measured at 405, 530, and 570 nm in a Victor Nivo Multimode microplate reader (Perkin Elmer, Waltham, MA, USA).

For `CC[C@H](C)[C@H](NC(=O)CN)C(=O)NCC(=O)N[C@@H](C)C(=O)N[C@H](C(=O)N[C@@H](CC(C)C)C(=O)N[C@@H](CCCCN)C(=O)N[C@H](C(=O)N[C@@H](CC(C)C)C(=O)N[C@H](C(=O)N[C@H](C(=O)NCC(=O)N[C@@H](CC(C)C)C(=O)N1CCC[C@H]1C(=O)N[C@@H](C)C(=O)N[C@@H](CC(C)C)C(=O)N[C@H](C(=O)N[C@@H](CO)C(=O)N[C@@H](Cc1c[nH]c2ccccc12)C(=O)N[C@H](C(=O)N[C@@H](CCCCN)C(=O)N[C@@H](CCCNC(=N)N)C(=O)N[C@@H](CCCCN)C(=O)N[C@@H](CCCNC(=N)N)C(=O)N[C@@H](CCC(N)=O)C(=O)N[C@@H](CCC(N)=O)C(N)=O)[C@@H](C)CC)[C@@H](C)CC)[C@@H](C)O)[C@@H](C)O)C(C)C)C(C)C` [Melittin, reference compound], the “Cytotoxicity (qualitative)” value [1] is listed as “high”, the “Blood clotting in whole blood” value ([2]; melittin 100 μM) is listed as “clotting effect was also observed” and the Calculated hemolysis ratio ([2]; OD 405 nm (signal saturated), pos. 10% SDS) is listed as 98.3 ± 1.4%. It also gave a Calculated hemolysis ratio ([2]; OD 530 nm, pos. 10% SDS) of 36.6 ± 8.7%, a Calculated hemolysis ratio ([2]; OD 570 nm, pos. 10% Triton X-100 (table title; text says 10% SDS)) of 54 ± 15.5% and a Calculated hemolysis ratio ([3]; 1% washed human erythrocytes, OD 530 nm) of 78.4 ± 4.3%. The Calculated hemolysis ratio ([3]; 1% washed human erythrocytes, OD 570 nm) was 79.8 ± 8.2% and the Calculated hemolysis ratio ([3]; Table 6: 1% washed human erythrocytes, OD 405 nm) was 84.4 ± 8.1%.
